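96-well plates; 48 h exposure; 5 concentrations. Endpoints by linear interpolation between flanking doses. Not reached: highest tested concentration assigned. The concentration for full growth arrest is given as TGI.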
How the values were obtained:
Experiment in all cases: NCI anticancer screen, dose series, 48 h
DMS 273 small cell lung = system: DMS 273 small cell lung
LXFL 529 NSCLC = system: LXFL 529 NSCLC
RXF-631 renal = system: RXF-631 renal
KM20L2 colon = system: KM20L2 colon
M19-MEL melanoma = system: M19-MEL melanoma
DMS 114 small cell lung = system: DMS 114 small cell lung
HOP-18 NSCLC = system: HOP-18 NSCLC
XF 498 CNS = system: XF 498 CNS
MDA-N = system: MDA-N

Structure (SMILES)	TGI (DMS 273 small cell lung)	TGI (LXFL 529 NSCLC)	TGI (RXF-631 renal)	TGI (KM20L2 colon)	TGI (M19-MEL melanoma)	TGI (DMS 114 small cell lung)	TGI (HOP-18 NSCLC)	TGI (XF 498 CNS)	TGI (MDA-N)
N#CCC(=O)N/N=C1/C(=O)N(c2cc(Cl)ccc2Cl)C(=O)C(=O)C1c1nc2ccccc2s1 (centres undefined)	> 100 µM	> 100 µM	> 100 µM	> 100 µM	> 100 µM	> 100 µM	> 100 µM	–	–
NS(=O)(=O)c1ccc(NC(=O)Cc2nc3ccccc3s2)cc1	33.1 µM	30.7 µM	30.3 µM	33.9 µM	28.1 µM	29.2 µM	34.8 µM	29.8 µM	–
CSc1ccc2c(cc1=O)[C@@H](NC(=O)c1ccc(Cl)cc1)CCc1cc(O)c(O)c(O)c1-2	> 100 µM	> 100 µM	–	> 100 µM	> 100 µM	> 100 µM	> 100 µM	–	–
CCN(CC)CC(C)C(=O)/C=C/c1ccc(C)cc1 (centres undefined)	5.96 µM	3.23 µM	–	21.6 µM	3.04 µM	3.2 µM	22.3 µM	2.98 µM	–
CSc1nc2nn(Cc3ccccc3)cc2c(=O)[nH]1	> 100 µM	> 100 µM	–	> 100 µM	> 100 µM	> 100 µM	> 100 µM	–	–
Cn1c(=O)nc2n(-c3ccc(Cl)cc3)c3cc(Cl)ccc3nc-2c1=O	12.5 µM	3.13 µM	4.22 µM	35.7 µM	3.53 µM	3.8 µM	28.3 µM	2.73 µM	3.09 µM
CCCCNS(=O)(=O)c1n[nH]c(=O)[nH]c1=O	–	–	–	–	–	–	–	–	> 100 µM
O=C(N/C(=C\c1cccc([N+](=O)[O-])c1)c1nc2ccccc2[nH]1)c1ccccc1	> 100 µM	> 100 µM	–	> 100 µM	> 100 µM	> 100 µM	–	87.5 µM	–
Oc1ccc2c3c1OC1c4[nH]ncc4C[C@H]4[C@@H](C2)N(CC2CC2)CC[C@]314 (some centres undefined)	–	–	–	–	–	–	–	–	> 100 µM
Cn1c2c(c3ccccc31)CCN(CCCCN1CCN(c3ccccc3)CC1)C2=O	> 100 µM	> 100 µM	> 100 µM	33.6 µM	> 86.7 µM	> 79.1 µM	> 31.6 µM	> 70.1 µM	89.9 µM
CC(C)(C)c1cc(CCCCCCCC2(CCCCCCCc3cc(C(C)(C)C)cc(C(C)(C)C)c3)OC(COCCOCCCCCC#N)C(COCCOCCCCCC#N)O2)cc(C(C)(C)C)c1 (centres undefined)	> 100 µM	> 100 µM	–	> 100 µM	> 100 µM	> 100 µM	> 100 µM	–	–
O=C(/C=C/c1ccccc1O)c1ccc([N+](=O)[O-])cc1	52.6 µM	26.7 µM	89.9 µM	39.7 µM	36.5 µM	24.7 µM	> 100 µM	32.7 µM	–
CCn1c2ccccc2c(=O)c2c(OC)ccc(OC)c21	> 100 µM	> 100 µM	> 100 µM	> 100 µM	> 100 µM	–	–	> 100 µM	–
COC(=O)c1ncc2c(=O)[nH]c3ccccc3c2c1C(=O)OC	> 100 µM	> 100 µM	> 100 µM	> 100 µM	> 100 µM	> 100 µM	> 100 µM	> 100 µM	–
CC(C)(C)C(=O)Nc1cccc2oc(-c3ccccc3)cc12	> 100 µM	> 100 µM	> 100 µM	> 100 µM	> 100 µM	> 100 µM	> 100 µM	–	–
C/C(=N\OCC(O)CNCCSCc1ccccc1)c1ccccc1Cl (centres undefined)	–	–	–	–	–	–	–	–	37.4 µM
COc1c(/C=C/C=O)cc2c(c1OC)OCO2	–	–	–	–	–	–	–	–	94 µM
CCCCCCn1c(SC)nc(COC(=O)NC)c1COC(=O)NC	–	–	–	–	–	–	–	–	36.1 µM
O=C(NCCCl)Nc1cccnc1	–	–	–	–	–	–	–	–	67.9 µM
O=C(O)c1ccc(C(O)(c2ccccc2)c2ccccc2)cc1	–	–	–	–	–	–	–	–	> 100 µM
Cc1[nH]c2ccccc2c1CC/C(=N\Nc1ccccc1)c1ccccc1	> 100 µM	–	> 100 µM	> 100 µM	–	–	–	> 100 µM	–

From PubChem BioAssay (NCI)
